Question: Which melting point does the source give for `Nc1nc(Nc2ccc(S(N)(=O)=O)cc2)nn1C(=O)c1ccco1` [Compound #17, N^3-[(4-aminosulfonyl)phenyl]-1-(2′-furoyl)-1H-1,2,4-triazole-3,5-diamine] here?
Answer: The melting point was greater than 300 °C.

Question: For `Nc1nc(Nc2ccc(S(N)(=O)=O)cc2)nn1C(=O)c1cccc([N+](=O)[O-])c1` [Compound #5, N^3-[(4-aminosulfonyl)phenyl]-1-(3′-nitrobenzoyl)-1H-1,2,4-triazole-3,5-diamine], which melting point is on record?
Answer: The melting point was 260 to 262 °C.

Question: With `Nc1nc(Nc2ccccc2)nn1C(=O)c1ccco1` [Compound #31, N^3-phenyl-1-(2-furoyl)-1,2,4-triazole-3,5-diamine] as the molecule, how does the melting point read?
Answer: Its melting point is 201 to 202 °C.

Question: For `Nc1nc(Nc2ccc(S(N)(=O)=O)cc2)nn1C(=O)c1ccccc1Cl` [Compound #2, N^3-[(4-aminosulfonyl)phenyl]-1-(2′-chlorobenzoyl)-1H-1,2,4-triazole-3,5-diamine], which melting point is on record?
Answer: Its melting point is 237 to 242.5 °C.

Question: For `COc1ccccc1C(=O)n1nc(Nc2ccccc2)nc1N` [Compound #29, N^3-phenyl-1-(2′methoxybenzoyl)-1,2,4-triazole-3,5-diamine], which melting point is on record?
Answer: The melting point was 89.5 to 94 °C.

Question: With `COc1cccc(C(=O)n2nc(Nc3ccccc3)nc2N)c1` [Compound #30, N^3-phenyl-1-(3′-methoxybenzoyl)-1,2,4-triazole-3,5-diamine] as the molecule, how does the melting point read?
Answer: Its melting point is 174 to 184 °C.

Question: With `Nc1nc(Nc2ccc(S(N)(=O)=O)cc2)nn1C(=O)c1ccccc1Br` [Compound #4, N^3-[(4-aminosulfonyl)phenyl]-1-(2′-bromobenzoyl)-1H-1,2,4-triazole-3,5-diamine] as the molecule, how does the melting point read?
Answer: Its melting point is 246 to 248 °C.

Question: With `Nc1nc(Nc2ccc(S(N)(=O)=O)cc2)nn1C(=O)c1cccc(C(F)(F)F)c1` [Compound #6, N^3-[(4-aminosulfonyl)phenyl]-1-[3′-(trifluoromethyl)benzoyl]-1H-1,2,4-triazole-3,5-diamine] as the molecule, how does the melting point read?
Answer: The melting point was 251 to 253 °C.

Question: For `Cc1ccc(C(=O)n2nc(Nc3ccccc3)nc2N)cc1` [Compound #25, N^3-phenyl-1-(4′-methylbenzoyl)-1,2,4-triazole-3,5-diamine], which melting point is on record?
Answer: The melting point was 222.5 to 224 °C.

Question: Which melting point does the source give for `Nc1nc(Nc2ccc(S(N)(=O)=O)cc2)nn1C(=O)c1ccc([N+](=O)[O-])cc1` [Compound #9, N^3-[(4-aminosulfonyl)phenyl]-1-(4′-nitrobenzoyl)-1H-1,2,4-triazole-3,5-diamine] here?
Answer: The melting point was 336 to 338 °C.

Question: For `Nc1nc(Nc2ccc(S(N)(=O)=O)cc2)nn1C(=O)c1ccc(Cl)cc1` [Compound #28, N^3-[(4-aminosulfonyl)phenyl]-1-(4′-chlorobenzoyl)-1H-1,2,4-triazole-3,5-diamine], which melting point is on record?
Answer: Its melting point is greater than 260 °C.

Question: Which melting point does the source give for `Nc1nc(Nc2ccc(S(N)(=O)=O)cc2)nn1C(=O)c1cccc(Br)c1` [Compound #7, N^3-[(4-aminosulfonyl)phenyl]-1-(3′-bromobenzoyl)-1H-1,2,4-triazole-3,5-diamine] here?
Answer: Its melting point is 242 to 244 °C.

Question: With `Nc1nc(Nc2ccc(S(N)(=O)=O)cc2)nn1C(=O)c1ccc(O)cc1` [Compound #10, N^3-[(4-aminosulfonyl)phenyl]-1-(4′-hydroxybenzoyl)-1H-1,2,4-triazole-3,5-diamine] as the molecule, how does the melting point read?
Answer: The melting point was greater than 300 °C.

Question: Which melting point does the source give for `COc1ccc(C(=O)n2nc(Nc3ccc(S(N)(=O)=O)cc3)nc2N)cc1` [Compound #12, N^3-[(4-aminosulfonyl)phenyl]-1-(4′-methoxybenzoyl)-1H-1,2,4-triazole-3,5-diamine] here?
Answer: Its melting point is 244.5 to 247.5 °C.

Question: For `CC(=O)n1nc(Nc2ccc(S(N)(=O)=O)cc2)nc1N` [Compound #16, N^3-[(4-aminosulfonyl)phenyl]-1-acetyl-1H-1,2,4-triazole-3,5-diamine], which melting point is on record?
Answer: Its melting point is 334 to 336 °C.

Question: With `COc1ccccc1C(=O)n1nc(Nc2ccc(S(N)(=O)=O)cc2)nc1N` [Compound #3, N^3-[(4-aminosulfonyl)phenyl]-1-(2′-methoxybenzoyl)-1H-1,2,4-triazole-3 5-diamine] as the molecule, how does the melting point read?
Answer: The melting point was 217 to 221.5 °C.

— patent US20060100259A1, “Process for the preparation of substituted triazole compounds” (priority 2004, published 2006)
